The values that follow come from publication PMC3192011 (Journal of medicinal chemistry, 2009).

In data set [1] the target is T1, mGlu5 (Rattus norvegicus, UniProt P31424). Particulars: cited from earlier work.
For data set [2], the system named is amphetamine-induced hyperlocomotion in rats. The following applies: cited from earlier work.
The target of data set [3] is T1, mGlu5. As to the kind of experiment: mGlu5 cell-based in vitro functional assay. Particulars: for IC50/EC50 (nM): IC50: NAM; for IC50/EC50 (nM): IC50 / IC50/EC50 (nM): EC50: average of at least three independent determinations; for IC50/EC50 (nM): EC50: PAM, potentiation in the presence of glutamate EC20.
Another data set has as its target mGlu1 (Homo sapiens, UniProt Q13255). The experiment in a line: mGlu selectivity, mGlu1. It is filed as cell-based.
The next data set has as its target mGlu2 (Homo sapiens, UniProt Q14416). As to the kind of experiment: mGlu selectivity, mGlu2. It is filed as cell-based.
The next data set concerns the target mGlu3 (Homo sapiens, UniProt Q14832). The experiment in a line: mGlu selectivity, mGlu3. Type of data set: cell-based.
For a further data set, the target named is mGlu4 (Homo sapiens, UniProt Q14833). As to the kind of experiment: mGlu selectivity, mGlu4. It is filed as cell-based.
Another data set addresses mGlu7 (Homo sapiens, UniProt Q14831). As to the kind of experiment: mGlu selectivity, mGlu7. Type of data set: cell-based.
The target in the next data set is mGlu8 (Homo sapiens, UniProt O00222). As to the kind of experiment: mGlu selectivity, mGlu8. Type of data set: cell-based.
Chain of mGlu8 (O00222 34-908): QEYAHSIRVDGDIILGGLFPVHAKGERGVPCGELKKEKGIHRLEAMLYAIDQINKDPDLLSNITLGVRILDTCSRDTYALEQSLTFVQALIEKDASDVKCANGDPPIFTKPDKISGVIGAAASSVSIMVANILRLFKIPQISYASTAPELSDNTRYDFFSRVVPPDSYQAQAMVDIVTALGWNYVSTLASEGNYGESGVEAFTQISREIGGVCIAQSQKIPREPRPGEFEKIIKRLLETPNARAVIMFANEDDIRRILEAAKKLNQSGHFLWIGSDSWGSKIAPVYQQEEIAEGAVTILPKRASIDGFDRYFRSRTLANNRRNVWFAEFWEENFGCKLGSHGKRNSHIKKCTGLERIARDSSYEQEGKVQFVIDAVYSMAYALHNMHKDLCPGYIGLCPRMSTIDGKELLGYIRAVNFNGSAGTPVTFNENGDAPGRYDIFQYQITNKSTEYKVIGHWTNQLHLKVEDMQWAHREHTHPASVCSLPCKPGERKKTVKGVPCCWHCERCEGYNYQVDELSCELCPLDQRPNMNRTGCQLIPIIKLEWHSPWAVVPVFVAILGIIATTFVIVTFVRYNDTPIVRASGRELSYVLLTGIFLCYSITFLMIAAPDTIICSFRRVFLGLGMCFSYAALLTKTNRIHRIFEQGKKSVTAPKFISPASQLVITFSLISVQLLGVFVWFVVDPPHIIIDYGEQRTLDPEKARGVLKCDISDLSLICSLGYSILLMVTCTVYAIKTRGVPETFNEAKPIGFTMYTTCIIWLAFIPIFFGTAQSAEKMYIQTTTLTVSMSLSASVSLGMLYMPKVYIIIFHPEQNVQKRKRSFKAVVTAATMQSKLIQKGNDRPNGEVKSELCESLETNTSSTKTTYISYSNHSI
The next data set relates to punished responding. As to the kind of experiment: Modified Geller-Seifter conflict model. Type of data set: in vivo, rodent. The following applies: 1, 3, 10, 30 mg/kg.
Data set [4] concerns amphetamine-induced hyperlocomotion in rats. The experiment in a line: Reversal of amphetamine-induced hyperlocomotion. It is filed as in vivo.

Where “and” joins values, the source holds several entries; their conditions need not be identical. Equal values may be shown once. Entries after “also recorded” stand apart in the source; their conditions may differ. Read-outs that look alike come from different tables or passages of the source.

T1 sequence (P31424 21-1203): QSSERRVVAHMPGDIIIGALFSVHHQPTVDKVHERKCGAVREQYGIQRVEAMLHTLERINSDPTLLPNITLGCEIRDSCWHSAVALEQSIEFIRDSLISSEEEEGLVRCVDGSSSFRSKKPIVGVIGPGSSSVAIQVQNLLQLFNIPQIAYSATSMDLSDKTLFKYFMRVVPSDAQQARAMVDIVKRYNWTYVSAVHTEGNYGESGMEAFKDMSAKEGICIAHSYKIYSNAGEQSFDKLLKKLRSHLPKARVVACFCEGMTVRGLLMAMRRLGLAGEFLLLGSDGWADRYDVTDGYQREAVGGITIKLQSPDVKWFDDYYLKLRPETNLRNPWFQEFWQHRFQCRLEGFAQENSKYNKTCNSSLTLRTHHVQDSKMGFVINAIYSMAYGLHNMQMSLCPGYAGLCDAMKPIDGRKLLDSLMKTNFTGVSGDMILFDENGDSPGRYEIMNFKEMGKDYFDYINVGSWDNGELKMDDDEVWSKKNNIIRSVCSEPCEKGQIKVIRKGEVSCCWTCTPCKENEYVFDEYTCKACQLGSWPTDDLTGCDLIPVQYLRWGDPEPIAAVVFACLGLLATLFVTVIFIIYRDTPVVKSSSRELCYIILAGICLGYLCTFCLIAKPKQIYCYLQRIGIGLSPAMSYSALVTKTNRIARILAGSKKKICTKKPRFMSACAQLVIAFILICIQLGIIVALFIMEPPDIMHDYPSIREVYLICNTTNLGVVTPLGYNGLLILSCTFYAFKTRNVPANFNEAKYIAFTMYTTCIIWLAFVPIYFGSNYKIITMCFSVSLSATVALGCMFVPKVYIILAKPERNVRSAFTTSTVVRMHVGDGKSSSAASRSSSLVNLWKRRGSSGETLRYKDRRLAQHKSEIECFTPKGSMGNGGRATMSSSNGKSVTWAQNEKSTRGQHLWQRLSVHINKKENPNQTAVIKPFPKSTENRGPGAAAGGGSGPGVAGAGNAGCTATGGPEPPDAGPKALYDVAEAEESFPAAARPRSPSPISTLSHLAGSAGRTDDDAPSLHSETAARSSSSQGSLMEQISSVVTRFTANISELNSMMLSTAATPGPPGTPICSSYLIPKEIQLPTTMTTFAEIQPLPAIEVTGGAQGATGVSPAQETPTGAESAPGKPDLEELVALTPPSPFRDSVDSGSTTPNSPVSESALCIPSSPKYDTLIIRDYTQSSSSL
Chain of mGlu3 (Q14832 23-879): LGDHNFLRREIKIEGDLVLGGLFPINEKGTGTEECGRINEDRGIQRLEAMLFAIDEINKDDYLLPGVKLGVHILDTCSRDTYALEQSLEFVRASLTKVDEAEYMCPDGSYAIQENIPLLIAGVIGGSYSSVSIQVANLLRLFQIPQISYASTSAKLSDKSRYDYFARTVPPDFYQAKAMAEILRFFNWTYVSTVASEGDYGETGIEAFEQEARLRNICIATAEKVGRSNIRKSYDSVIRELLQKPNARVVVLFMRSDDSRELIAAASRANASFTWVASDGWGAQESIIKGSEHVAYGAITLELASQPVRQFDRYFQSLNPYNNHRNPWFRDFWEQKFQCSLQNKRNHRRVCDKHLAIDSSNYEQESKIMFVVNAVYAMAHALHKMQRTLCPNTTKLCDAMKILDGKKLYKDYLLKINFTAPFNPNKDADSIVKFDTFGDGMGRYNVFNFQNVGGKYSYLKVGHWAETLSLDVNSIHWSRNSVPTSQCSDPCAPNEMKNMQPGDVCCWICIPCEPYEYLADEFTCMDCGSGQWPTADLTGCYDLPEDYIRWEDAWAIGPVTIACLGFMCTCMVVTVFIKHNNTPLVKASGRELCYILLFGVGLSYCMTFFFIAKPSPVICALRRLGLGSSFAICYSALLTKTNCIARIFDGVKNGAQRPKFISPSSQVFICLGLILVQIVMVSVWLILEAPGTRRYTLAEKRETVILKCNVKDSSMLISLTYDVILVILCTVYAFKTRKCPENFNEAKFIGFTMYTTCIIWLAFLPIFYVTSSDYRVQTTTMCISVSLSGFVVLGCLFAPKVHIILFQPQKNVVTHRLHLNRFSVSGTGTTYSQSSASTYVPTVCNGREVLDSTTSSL
Chain of mGlu2 (Q14416 19-872): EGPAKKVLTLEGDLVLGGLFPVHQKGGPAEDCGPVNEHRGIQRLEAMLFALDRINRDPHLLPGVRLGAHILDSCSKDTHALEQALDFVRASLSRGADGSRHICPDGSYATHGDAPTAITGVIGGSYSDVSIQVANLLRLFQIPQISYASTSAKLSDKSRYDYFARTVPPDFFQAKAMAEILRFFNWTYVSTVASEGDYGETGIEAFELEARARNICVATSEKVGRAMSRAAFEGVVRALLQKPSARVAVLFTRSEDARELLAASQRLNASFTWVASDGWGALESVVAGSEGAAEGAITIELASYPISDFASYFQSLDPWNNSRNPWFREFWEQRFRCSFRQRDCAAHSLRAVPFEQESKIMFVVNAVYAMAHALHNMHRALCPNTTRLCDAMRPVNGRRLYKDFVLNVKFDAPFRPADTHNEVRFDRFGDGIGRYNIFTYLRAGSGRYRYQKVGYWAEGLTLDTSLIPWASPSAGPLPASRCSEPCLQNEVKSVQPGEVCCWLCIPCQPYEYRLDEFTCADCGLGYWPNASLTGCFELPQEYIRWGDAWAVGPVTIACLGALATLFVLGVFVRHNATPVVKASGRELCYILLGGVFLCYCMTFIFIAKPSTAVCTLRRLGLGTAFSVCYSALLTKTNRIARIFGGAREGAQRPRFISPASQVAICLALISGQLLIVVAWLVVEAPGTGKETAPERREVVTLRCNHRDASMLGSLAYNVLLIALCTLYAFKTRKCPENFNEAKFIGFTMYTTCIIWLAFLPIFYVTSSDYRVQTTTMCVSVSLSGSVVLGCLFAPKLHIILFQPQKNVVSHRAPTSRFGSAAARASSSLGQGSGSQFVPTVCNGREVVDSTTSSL
Chain of mGlu1 (Q13255 19-1194): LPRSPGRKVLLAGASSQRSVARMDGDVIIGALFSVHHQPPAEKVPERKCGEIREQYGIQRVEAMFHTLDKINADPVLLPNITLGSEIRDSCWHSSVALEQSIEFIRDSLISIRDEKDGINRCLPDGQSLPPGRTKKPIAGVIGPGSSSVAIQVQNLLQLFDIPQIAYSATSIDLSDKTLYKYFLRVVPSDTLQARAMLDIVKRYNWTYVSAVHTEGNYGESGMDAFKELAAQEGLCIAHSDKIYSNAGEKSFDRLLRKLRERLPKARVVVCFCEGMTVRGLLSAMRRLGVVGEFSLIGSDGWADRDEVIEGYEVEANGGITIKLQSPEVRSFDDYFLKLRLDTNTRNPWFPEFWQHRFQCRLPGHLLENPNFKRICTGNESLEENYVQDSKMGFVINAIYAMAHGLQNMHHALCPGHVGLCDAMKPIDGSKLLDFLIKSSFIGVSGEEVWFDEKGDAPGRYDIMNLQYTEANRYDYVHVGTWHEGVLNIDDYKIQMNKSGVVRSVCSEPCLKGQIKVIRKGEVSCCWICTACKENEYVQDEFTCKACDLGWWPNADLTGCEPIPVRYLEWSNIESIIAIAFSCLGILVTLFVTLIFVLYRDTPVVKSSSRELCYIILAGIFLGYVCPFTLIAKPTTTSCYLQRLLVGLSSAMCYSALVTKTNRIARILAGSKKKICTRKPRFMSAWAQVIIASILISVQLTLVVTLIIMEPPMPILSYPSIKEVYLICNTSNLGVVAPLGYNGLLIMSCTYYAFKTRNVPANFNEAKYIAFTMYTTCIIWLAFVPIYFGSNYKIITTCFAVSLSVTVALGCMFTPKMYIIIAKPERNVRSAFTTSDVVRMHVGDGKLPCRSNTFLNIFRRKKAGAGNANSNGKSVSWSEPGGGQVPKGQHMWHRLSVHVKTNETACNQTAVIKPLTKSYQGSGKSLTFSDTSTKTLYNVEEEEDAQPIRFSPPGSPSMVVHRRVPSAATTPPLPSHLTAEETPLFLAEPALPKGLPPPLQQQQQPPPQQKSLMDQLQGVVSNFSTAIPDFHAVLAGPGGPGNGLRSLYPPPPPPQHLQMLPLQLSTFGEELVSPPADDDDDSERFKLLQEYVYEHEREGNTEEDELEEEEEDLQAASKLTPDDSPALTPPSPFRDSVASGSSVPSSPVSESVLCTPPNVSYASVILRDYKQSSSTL

For the compound `Cc1ccc(C#Cc2cncnc2)cc1` [compound 10], the “IC50/EC50 (nM): EC50” value on mGlu5 [1] (PAM, table value of earlier compound) is 3,300±290 nM. Also, at mGlu5 [1] (mGlu5 PAM), the “Fold Shift” value is listed as 4.2 fold and the “efficacy, % of glutamate max” value is 99%.
In the case of `O=C(c1ccc(F)cc1)N1CCC[C@H](c2nc(-c3ccc(F)cc3)no2)C1` [compound 7, reference compound], the “mode of mGlu5 pharmacology in words” value on mGlu5 [1] is recorded as “ago-potentiators”. Further, in data set [2], the “efficacy in amphetamine-induced hyperlocomotion model” value is reported as “robust efficacy”.
As to `Cc1cccc(C#Cc2ncccn2)c1` [17b], on mGlu5 [3], the “IC50/EC50 (nM): IC50” value worked out at 10.8 ± 2.7 nM. Also, the “selectivity vs. mGlu1” value on mGlu1 was more than 10 µM. The “selectivity vs. mGlu2” value on mGlu2 is more than 10 µM. In addition, the “selectivity vs. mGlu3” value at mGlu3 is more than 10 µM. Also, the “selectivity vs. mGlu4” value on mGlu4 is more than 10 µM. The “selectivity vs. mGlu7” value at mGlu7 is more than 10 µM. Besides, the “selectivity vs. mGlu8” value at mGlu8 is more than 10 µM. Moreover, the unpunished responding result with punished responding was “no significant effect on unpunished responding; also recorded: did not change significantly at any of the doses tested”. Besides, the “punished responding vs vehicle” value with punished responding (p < 0.05 Newman-Keul) was “both the 10 and 30 mg/kg doses in the punished component of the schedule differed significantly from vehicle; also recorded: significantly greater number of responses than animals tested on vehicle”.
With `CSc1ncc(C#Cc2ccccc2)cn1` [16d], the “IC50/EC50 (nM): EC50” value on mGlu5 [3] turned out to be 120 nM.
As to `Cc1ccc(C#Cc2ncccn2)cc1` [17c], the “mGlu5 activity in words” value at mGlu5 [3] is “inactive”.
As for `CCOc1ncc(C#Cc2cccc(C)c2)cn1` [16a], the “IC50/EC50 (nM): IC50” value against mGlu5 [3] is given as 21 nM.
On to `CNc1ncc(C#Cc2ccccc2)cn1` [16b], for which, on mGlu5 [3], the “mGlu5 activity in words” value is listed as “pure mGlu5 PAM” and the “IC50/EC50 (nM): EC50” value turned out to be 14.3 nM. Further, the “activity in the absence of glutamate (agonism)” value on mGlu5 [3] (no glutamate) is “does not activate mGlu5”. In [4] (i.p. 3, 10 or 30 mg/kg thirty minutes prior to s.c. 1 mg/kg amphetamine, vehicle 10% Tween 80), the “reversal of amphetamine-induced hyperlocomotion” value was “significant reversal noted at the 30 mg/kg dose; also recorded: dose-dependent manner”. Besides, the “effect of compound/vehicle alone on locomotion (sedation)” value in [4] (without amphetamine) is on record as “no effect”.
As for `CNc1ncc(C#Cc2ccc(C)cc2)cn1` [16f], on mGlu5 [3], the “mGlu5 activity in words” value is “weak mGlu5 PAM”.
Turning to `N#Cc1cccc(C(=O)Nc2cc(-c3ccccc3)nn2-c2ccccc2)c1` [compound 6, reference compound], on mGlu5 [1], the “mode of mGlu5 pharmacology in words” value is “ago-potentiators”. In addition, the “efficacy in amphetamine-induced hyperlocomotion model” value in data set [2] was “robust efficacy”.
As to `CNc1ncc(C#Cc2cccc(C)c2)cn1` [16c], the “IC50/EC50 (nM): EC50” value at mGlu5 [3] was 21.1 nM and 21 nM.
On the same count and under the same terms, the figure for `CC(C)(C)c1ncc(C#Cc2ccccc2)cn1` [16e] is 247 nM.
